Assay results published in ChEMBL document CHEMBL1909046, “DrugMatrix in vitro pharmacology data”.

Tests used:
[1] = biological target: Melanocortin receptor 5 (Homo sapiens, UniProt P33032); assay type: cell membranes, Membrane; settings: hek293; note: in other assays of this panel Not Active means under 50% inhibition at 10 µM
[2] = biological target: T1, Alpha-1B adrenergic receptor (Rattus norvegicus, UniProt P15823); experiment: DRUGMATRIX: Alpha-1B adrenergic receptor radioligand binding (ligand: prazosin); assay type: cell membranes, Wistar, Liver, Membrane; settings: Not Active = under 50% inhibition at 10 µM
T1 sequence (P15823 whole entry): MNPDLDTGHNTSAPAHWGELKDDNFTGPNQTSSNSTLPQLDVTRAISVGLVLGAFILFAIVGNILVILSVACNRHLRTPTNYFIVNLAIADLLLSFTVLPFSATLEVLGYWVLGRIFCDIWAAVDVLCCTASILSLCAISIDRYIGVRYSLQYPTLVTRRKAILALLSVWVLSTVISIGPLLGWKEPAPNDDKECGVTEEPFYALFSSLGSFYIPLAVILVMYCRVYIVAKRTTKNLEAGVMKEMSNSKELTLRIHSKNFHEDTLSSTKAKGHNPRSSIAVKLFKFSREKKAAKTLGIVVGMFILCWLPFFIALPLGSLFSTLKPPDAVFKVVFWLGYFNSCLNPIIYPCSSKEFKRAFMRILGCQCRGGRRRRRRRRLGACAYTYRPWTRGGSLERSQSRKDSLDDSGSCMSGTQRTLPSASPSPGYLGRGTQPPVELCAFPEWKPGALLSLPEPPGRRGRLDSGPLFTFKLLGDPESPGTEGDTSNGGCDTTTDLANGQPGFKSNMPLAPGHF

[3] = biological target: T2, Cytochrome P450 1A2 (Homo sapiens, UniProt P05177); settings: bti-tn-5b1-4; note: in other assays of this panel Not Active means under 50% inhibition at 10 µM
T2 sequence (P05177 whole entry): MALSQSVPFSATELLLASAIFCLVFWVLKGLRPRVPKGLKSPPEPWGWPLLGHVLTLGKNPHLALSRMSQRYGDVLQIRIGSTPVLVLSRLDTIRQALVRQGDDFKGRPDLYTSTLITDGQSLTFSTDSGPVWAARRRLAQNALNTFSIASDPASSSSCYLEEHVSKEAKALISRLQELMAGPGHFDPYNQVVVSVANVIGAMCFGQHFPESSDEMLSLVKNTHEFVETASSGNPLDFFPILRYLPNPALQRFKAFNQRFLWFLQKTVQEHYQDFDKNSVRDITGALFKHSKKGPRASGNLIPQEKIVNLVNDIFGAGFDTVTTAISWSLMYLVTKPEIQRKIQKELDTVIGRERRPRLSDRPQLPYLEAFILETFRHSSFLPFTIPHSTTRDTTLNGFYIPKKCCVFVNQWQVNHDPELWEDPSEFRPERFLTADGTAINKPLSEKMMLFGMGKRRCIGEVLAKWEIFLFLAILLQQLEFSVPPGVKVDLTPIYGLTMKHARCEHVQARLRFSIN

[4] = DRUGMATRIX: Interleukin IL-1 radioligand binding (ligand: [125I] interleukin 1beta); assay type: cell membranes, Membrane; settings: nih3t3; Not Active = under 50% inhibition at 10 µM
[5] = DRUGMATRIX: Platelet-Derived Growth Factor (PDGF) radioligand binding (ligand: [125I] PDGF); assay type: cell-based; settings: nih3t3; Not Active = under 50% inhibition at 10 µM
[6] = DRUGMATRIX: Glutamate, NMDA, Agonism radioligand binding (ligand: [3H] CGP-39653); assay type: cell membranes, Rattus norvegicus, Wistar, Cerebral cortex, Membrane; settings: Not Active = under 50% inhibition at 10 µM
[7] = biological target: T3, Type-2 angiotensin II receptor (Homo sapiens, UniProt P50052); assay type: cell-based; settings: cho-k1; note: in other assays of this panel Not Active means under 50% inhibition at 10 µM
T3 sequence (P50052 whole entry): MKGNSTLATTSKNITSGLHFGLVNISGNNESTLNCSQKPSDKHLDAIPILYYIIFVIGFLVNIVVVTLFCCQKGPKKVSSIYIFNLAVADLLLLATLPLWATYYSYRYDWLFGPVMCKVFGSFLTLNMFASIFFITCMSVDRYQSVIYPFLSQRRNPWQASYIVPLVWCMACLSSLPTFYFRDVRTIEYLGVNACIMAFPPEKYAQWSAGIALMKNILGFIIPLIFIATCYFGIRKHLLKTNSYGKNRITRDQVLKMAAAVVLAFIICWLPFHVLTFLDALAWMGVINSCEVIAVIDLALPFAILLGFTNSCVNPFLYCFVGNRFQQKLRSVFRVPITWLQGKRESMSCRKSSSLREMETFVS

[8] = biological target: Acetylcholinesterase (Homo sapiens, UniProt P22303); experiment: DRUGMATRIX: Acetylcholinesterase enzyme inhibition (substrate: acetylthiocholine); assay type: cell-based, HEK293; settings: hek293; Not Active = under 50% inhibition at 10 µM
Chain of Acetylcholinesterase (P22303 whole entry): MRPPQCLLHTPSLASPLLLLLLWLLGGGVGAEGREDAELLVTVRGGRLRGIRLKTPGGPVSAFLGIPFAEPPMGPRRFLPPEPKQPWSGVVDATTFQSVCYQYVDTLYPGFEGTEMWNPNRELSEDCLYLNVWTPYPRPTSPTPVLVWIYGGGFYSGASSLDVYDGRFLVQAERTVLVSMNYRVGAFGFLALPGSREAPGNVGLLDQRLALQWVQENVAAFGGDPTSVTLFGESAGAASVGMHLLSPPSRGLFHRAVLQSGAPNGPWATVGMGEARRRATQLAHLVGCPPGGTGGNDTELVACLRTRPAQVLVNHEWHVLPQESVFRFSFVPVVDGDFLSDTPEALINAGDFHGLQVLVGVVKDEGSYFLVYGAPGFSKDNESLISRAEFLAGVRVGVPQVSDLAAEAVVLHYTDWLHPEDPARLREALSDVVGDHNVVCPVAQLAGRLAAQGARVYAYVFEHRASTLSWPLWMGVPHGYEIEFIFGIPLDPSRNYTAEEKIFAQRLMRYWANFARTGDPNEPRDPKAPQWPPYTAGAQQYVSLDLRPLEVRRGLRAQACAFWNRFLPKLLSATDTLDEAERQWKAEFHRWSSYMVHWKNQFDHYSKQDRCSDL

Chain of Melanocortin receptor 5 (P33032 whole entry): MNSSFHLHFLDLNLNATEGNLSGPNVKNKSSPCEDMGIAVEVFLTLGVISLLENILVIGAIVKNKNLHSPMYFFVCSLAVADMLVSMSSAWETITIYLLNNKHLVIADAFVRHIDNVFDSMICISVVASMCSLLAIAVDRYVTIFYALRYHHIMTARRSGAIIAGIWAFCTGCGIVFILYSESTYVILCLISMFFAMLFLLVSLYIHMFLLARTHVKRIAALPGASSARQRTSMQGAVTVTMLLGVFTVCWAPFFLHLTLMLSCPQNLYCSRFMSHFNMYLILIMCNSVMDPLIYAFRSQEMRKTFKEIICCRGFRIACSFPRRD

CC(C)(C(=O)c1cccnc1)c1cccnc1 [METYRAPONE]
Not Active: IC50 [1] | IC50 [2] | IC50 [3] | Ki [3] | IC50 [4] | Ki [4] | IC50 [5] | Ki [5] | IC50 [6] | Ki [6] | IC50 [7] | IC50 [8]

Oc1ccc(OCc2ccccc2)cc1 [MONOBENZONE]
Not Active: IC50 [1] | IC50 [2] | IC50 [3] | Ki [3] | IC50 [4] | Ki [4] | IC50 [5] | Ki [5] | IC50 [6] | Ki [6] | IC50 [7] | IC50 [8]

CC(C)(Oc1ccc(C2CCCc3ccccc32)cc1)C(=O)O (centres undefined) [NAFENOPIN]
Not Active: IC50 [1] | IC50 [2] | IC50 [3] | Ki [3] | IC50 [4] | Ki [4] | IC50 [5] | Ki [5] | IC50 [6] | Ki [6] | IC50 [7] | IC50 [8]

CC(C)[C@H]1CC[C@H](C(=O)N[C@H](Cc2ccccc2)C(=O)O)CC1 [NATEGLINIDE]
Not Active: IC50 [1] | IC50 [2] | IC50 [3] | Ki [3] | IC50 [4] | Ki [4] | IC50 [5] | Ki [5] | IC50 [6] | Ki [6] | IC50 [7] | IC50 [8]

CCN[C@@H]1C[C@H](N)[C@@H](O[C@H]2OC(CN)=CC[C@H]2N)[C@H](O)[C@H]1O[C@H]1OC[C@](C)(O)[C@H](NC)[C@H]1O [NETILMICIN]
Not Active: IC50 [1] | IC50 [2] | IC50 [3] | Ki [3] | IC50 [4] | Ki [4] | IC50 [5] | Ki [5] | IC50 [6] | Ki [6] | IC50 [7] | IC50 [8]

CCOC(=O)C1=C(C)NC(C)=C(C(=O)OC)C1c1cccc([N+](=O)[O-])c1 (centres undefined) [NITRENDIPINE]
Not Active: IC50 [1] | IC50 [2] | IC50 [3] | Ki [3] | IC50 [4] | Ki [4] | IC50 [5] | Ki [5] | IC50 [6] | Ki [6] | IC50 [7] | IC50 [8]

C#C[C@]1(OC(C)=O)CC[C@H]2[C@@H]3CCC4=CC(=O)CC[C@@H]4[C@H]3CC[C@@]21C [NORETHINDRONE ACETATE]
Not Active: IC50 [1] | IC50 [2] | IC50 [3] | Ki [3] | IC50 [4] | Ki [4] | IC50 [5] | Ki [5] | IC50 [6] | Ki [6] | IC50 [7] | IC50 [8]
